According to patent US10004701B2, “Methods and compositions for treating infection” (UNIVERSITY OF ROCHESTER, priority 2012, dated 2018):
Structures can show the parent of a compound that is named as a salt. Where two headings read alike, the source gives them in different places.

Columns and labels:
Assay in all cases: AK assay 384-well format, Prestwick library screening
E. faecium = format: cell-based, Enterococcus faecium; conditions: 50 μM final drug concentration; for fold induction at 50 µM: Enterococcus faecium, 3 h
[1] = system: S. aureus strain USA300-0114; format: cell-based, Staphylococcus aureus; conditions: 50 μM final drug concentration; for fold induction at 50 µM: Staphylococcus aureus, USA300, 3 h
K. pneumoniae = format: cell-based, Klebsiella pneumoniae; conditions: 50 μM final drug concentration; for fold induction at 50 µM: Klebsiella pneumoniae, 3 h
[2] = system: A. baumannii strain 98-37-09; format: cell-based, Acinetobacter baumannii; conditions: 50 μM final drug concentration; for fold induction at 50 µM: Acinetobacter baumannii, 983709, 3 h
P. aeruginosa = format: cell-based, Pseudomonas aeruginosa; conditions: 50 μM final drug concentration; for fold induction at 50 µM: Pseudomonas aeruginosa, 3 h
E. cloacae = format: cell-based, Enterobacter cloacae; conditions: 50 μM final drug concentration; for fold induction at 50 µM: Enterobacter cloacae, 3 h
E. coli = format: cell-based, Escherichia coli; conditions: 50 μM final drug concentration; for fold induction at 50 µM: Escherichia coli, 3 h
[3] = planktonic, cutoff for positive-scoring molecules 3-fold increase, read-out: AK-based Prestwick Library Screening Results, E. faecium (fold increase in extracellular AK activity)
[4] = planktonic, cutoff for positive-scoring molecules 3-fold increase, read-out: AK-based Prestwick Library Screening Results, S. aureus (fold increase in extracellular AK activity)
[5] = planktonic, cutoff for positive-scoring molecules 3-fold increase, read-out: AK-based Prestwick Library Screening Results, K. pneumoniae (fold increase in extracellular AK activity)
[6] = planktonic, cutoff for positive-scoring molecules 3-fold increase, read-out: AK-based Prestwick Library Screening Results, A. baumannii (fold increase in extracellular AK activity)
[7] = planktonic, cutoff for positive-scoring molecules 3-fold increase, read-out: AK-based Prestwick Library Screening Results, P. aeruginosa (fold increase in extracellular AK activity)
[8] = planktonic, cutoff for positive-scoring molecules 3-fold increase, read-out: AK-based Prestwick Library Screening Results, E. cloacae (fold increase in extracellular AK activity)
[9] = planktonic, cutoff for positive-scoring molecules 3-fold increase, read-out: AK-based Prestwick Library Screening Results, E. coli (fold increase in extracellular AK activity)
[10] = planktonic, cutoff for positive 3-fold increase, read-out: AK-based Prestwick Library Screening Results, E. faecium (fold increase in extracellular AK activity)
[11] = planktonic, cutoff for positive 3-fold increase, read-out: AK-based Prestwick Library Screening Results, S. aureus (fold increase in extracellular AK activity)
[12] = planktonic, cutoff for positive 3-fold increase, read-out: AK-based Prestwick Library Screening Results, K. pneumoniae (fold increase in extracellular AK activity)
[13] = planktonic, cutoff for positive 3-fold increase, read-out: AK-based Prestwick Library Screening Results, A. baumannii (fold increase in extracellular AK activity)
[14] = planktonic, cutoff for positive 3-fold increase, read-out: AK-based Prestwick Library Screening Results, P. aeruginosa (fold increase in extracellular AK activity)
[15] = planktonic, cutoff for positive 3-fold increase, read-out: AK-based Prestwick Library Screening Results, E. cloacae (fold increase in extracellular AK activity)
[16] = planktonic, cutoff for positive 3-fold increase, read-out: AK-based Prestwick Library Screening Results, E. coli (fold increase in extracellular AK activity)
[17] = 384-well format, cutoff for positive-scoring molecules 3-fold increase

Cn1c(=O)c2[nH]cnc2n(C)c1=O [Aminophylline]
fold induction at 50 µM (E. faecium; [3]): 0.9
fold induction at 50 µM [1, 4]: 0.6
fold induction at 50 µM (K. pneumoniae; [5]): 0.6
fold induction at 50 µM [2, 6]: 0.7
fold induction at 50 µM (P. aeruginosa; [7]): 0.8
fold induction at 50 µM (E. cloacae; [8]): 0.8
fold induction at 50 µM (E. coli; [9]): 0.6

CCN(CC)Cc1cc(Nc2ccnc3cc(Cl)ccc23)ccc1O [Amodiaquin dihydrochloride dihydrate]
fold induction at 50 µM (E. faecium; planktonic E. faecium, 384-well, cutoff for positive-scoring molecules 3-fold increase, read-out: AK-based Prestwick Library Screening Results: E. faecium (increase in extracellular AK activity)): 1.1
fold induction at 50 µM ([1]; planktonic S. aureus, 384-well, cutoff for positive-scoring molecules 3-fold increase, read-out: AK-based Prestwick Library Screening Results: S. aureus (increase in extracellular AK activity)): 1.3
fold induction at 50 µM (K. pneumoniae; planktonic K. pneumoniae, 384-well, cutoff for positive-scoring molecules 3-fold increase, read-out: AK-based Prestwick Library Screening Results: K. pneumoniae (increase in extracellular AK activity)): 0.9
fold induction at 50 µM ([2]; planktonic A. baumannii, 384-well, cutoff for positive-scoring molecules 3-fold increase, read-out: AK-based Prestwick Library Screening Results: A. baumannii (increase in extracellular AK activity)): 1.5
fold induction at 50 µM (P. aeruginosa; planktonic P. aeruginosa, 384-well, cutoff for positive-scoring molecules 3-fold increase, read-out: AK-based Prestwick Library Screening Results: P. aeruginosa (increase in extracellular AK activity)): 1.2
fold induction at 50 µM (E. cloacae; planktonic E. cloacae, 384-well, cutoff for positive-scoring molecules 3-fold increase, read-out: AK-based Prestwick Library Screening Results: E. cloacae (increase in extracellular AK activity)): 1.4
fold induction at 50 µM (E. coli; planktonic E. coli, 384-well, cutoff for positive-scoring molecules 3-fold increase, read-out: AK-based Prestwick Library Screening Results: E. coli (increase in extracellular AK activity)): 1.2

Cc1nc2ccccn2c(=O)c1CCN1CCC(C(=O)c2ccc(F)cc2)CC1 [Pirenperone]
fold induction at 50 µM (E. faecium; [10]): 1.1
fold induction at 50 µM [1, 11]: 1.1
fold induction at 50 µM (K. pneumoniae; [12]): 1
fold induction at 50 µM [2, 13]: 1.2
fold induction at 50 µM (P. aeruginosa; [14]): 1.2
fold induction at 50 µM (E. cloacae; [15]): 1.5
fold induction at 50 µM (E. coli; [16]): 1.1

N[C@@H](Cc1cc(I)c(Oc2cc(I)c(O)c(I)c2)c(I)c1)C(=O)O [Thyroxine (L)]
AK-based Prestwick Library Screening Results: E. faecium (increase in extracellular AK activity) (E. faecium; planktonic E. faecium, 384-well, […]): 1.0
AK-based Prestwick Library Screening Results: S. aureus (increase in extracellular AK activity) ([1]; planktonic S. aureus, 384-well, […]): 0.2
AK-based Prestwick Library Screening Results: K. pneumoniae (increase in extracellular AK activity) (K. pneumoniae; planktonic K. pneumoniae, 384-well, […]): 0.4
AK-based Prestwick Library Screening Results: A. baumannii (increase in extracellular AK activity) ([2]; planktonic A. baumannii, 384-well, […]): 0.4
AK-based Prestwick Library Screening Results: P. aeruginosa (increase in extracellular AK activity) (P. aeruginosa; planktonic P. aeruginosa, 384-well, […]): 0.4
AK-based Prestwick Library Screening Results: E. cloacae (increase in extracellular AK activity) (E. cloacae; planktonic E. cloacae, 384-well, […]): 0.3
AK-based Prestwick Library Screening Results: E. coli (increase in extracellular AK activity) (E. coli; planktonic E. coli, 384-well, […]): 0.5

O=C(O)CCCc1ccc(N(CCCl)CCCl)cc1 [Chlorambucil]
fold induction at 50 µM (E. faecium; planktonic E. faecium, […], read-out: AK-based Prestwick library screening result, E. faecium (fold increase in extracellular AK activity)): 0.9
fold induction at 50 µM ([1]; planktonic S. aureus, […], read-out: AK-based Prestwick library screening result, S. aureus (fold increase in extracellular AK activity)): 0.8
fold induction at 50 µM (K. pneumoniae; planktonic K. pneumoniae, […], read-out: AK-based Prestwick library screening result, K. pneumoniae (fold increase in extracellular AK activity)): 0.7
fold induction at 50 µM ([2]; planktonic A. baumannii, […], read-out: AK-based Prestwick library screening result, A. baumannii (fold increase in extracellular AK activity)): 0.9
fold induction at 50 µM (P. aeruginosa; planktonic P. aeruginosa, […], read-out: AK-based Prestwick library screening result, P. aeruginosa (fold increase in extracellular AK activity)): 0.8
fold induction at 50 µM (E. cloacae; planktonic E. cloacae, […], read-out: AK-based Prestwick library screening result, E. cloacae (fold increase in extracellular AK activity)): 1.2
fold induction at 50 µM (E. coli; planktonic E. coli, […], read-out: AK-based Prestwick library screening result, E. coli (fold increase in extracellular AK activity)): 0.9

NCC[C@H](O)C(=O)N[C@@H]1C[C@H](N)[C@@H](O[C@H]2O[C@H](CN)[C@@H](O)[C@H](O)[C@H]2O)[C@H](O)[C@H]1O[C@H]1O[C@H](CO)[C@@H](O)[C@H](N)[C@H]1O [Amikacin hydrate]
fold induction at 50 µM (E. faecium; [10]): 1
fold induction at 50 µM [1, 11]: 1.3
fold induction at 50 µM (K. pneumoniae; [12]): 6.2
fold induction at 50 µM [2, 13]: 7.6
fold induction at 50 µM (P. aeruginosa; [14]): 14.2
fold induction at 50 µM (E. cloacae; [15]): 4.9
fold induction at 50 µM (E. coli; [16]): 22.1

Nc1nc(O)c2[nH]nnc2n1 [Azaguanine-8]
AK-based Prestwick Library Screening Results, E. faecium (increase in extracellular AK activity) (E. faecium; [17]): 0.8
AK-based Prestwick Library Screening Results, S. aureus (increase in extracellular AK activity) [1, 17]: 0.6
AK-based Prestwick Library Screening Results, K. pneumoniae (increase in extracellular AK activity) (K. pneumoniae; [17]): 0.3
AK-based Prestwick Library Screening Results, A. baumannii (increase in extracellular AK activity) [2, 17]: 0.3
AK-based Prestwick Library Screening Results, P. aeruginosa (increase in extracellular AK activity) (P. aeruginosa; [17]): 0.3
AK-based Prestwick Library Screening Results, E. cloacae (increase in extracellular AK activity) (E. cloacae; [17]): 0.3
AK-based Prestwick Library Screening Results, E. coli (increase in extracellular AK activity) (E. coli; [17]): 0.4

O=C(/C=C/c1ccc(O)c(O)c1)O[C@@H]1C[C@](O)(C(=O)O)C[C@@H](O)[C@H]1O [Chlorogenic acid]
fold induction at 50 µM (E. faecium; planktonic E. faecium, cutoff for positive-scoring molecules 3-fold increase, read-out: AK-based Prestwick Library Screening Results, E. faecium (increase in extracellular AK activity)): 0.9
fold induction at 50 µM ([1]; planktonic S. aureus, cutoff for positive-scoring molecules 3-fold increase, read-out: AK-based Prestwick Library Screening Results, S. aureus (increase in extracellular AK activity)): 0.5
fold induction at 50 µM (K. pneumoniae; planktonic K. pneumoniae, cutoff for positive-scoring molecules 3-fold increase, read-out: AK-based Prestwick Library Screening Results, K. pneumoniae (increase in extracellular AK activity)): 0.7
fold induction at 50 µM ([2]; planktonic A. baumannii, cutoff for positive-scoring molecules 3-fold increase, read-out: AK-based Prestwick Library Screening Results, A. baumannii (increase in extracellular AK activity)): 0.8
fold induction at 50 µM (P. aeruginosa; planktonic P. aeruginosa, cutoff for positive-scoring molecules 3-fold increase, read-out: AK-based Prestwick Library Screening Results, P. aeruginosa (increase in extracellular AK activity)): 0.7
fold induction at 50 µM (E. cloacae; planktonic E. cloacae, cutoff for positive-scoring molecules 3-fold increase, read-out: AK-based Prestwick Library Screening Results, E. cloacae (increase in extracellular AK activity)): 0.8
fold induction at 50 µM (E. coli; planktonic E. coli, cutoff for positive-scoring molecules 3-fold increase, read-out: AK-based Prestwick Library Screening Results, E. coli (increase in extracellular AK activity)): 0.8

O=C(O)Cc1ccc(-c2ccccc2)cc1 [Felbinac]
fold induction at 50 µM (E. faecium; [3]): 0.9
fold induction at 50 µM [1, 4]: 0.6
fold induction at 50 µM (K. pneumoniae; [5]): 0.6
fold induction at 50 µM [2, 6]: 0.8
fold induction at 50 µM (P. aeruginosa; [7]): 0.7
fold induction at 50 µM (E. cloacae; [8]): 1
fold induction at 50 µM (E. coli; [9]): 0.7
